# Measurements from patent US20050163815A1, “Use of plant materials as a terrestrial molluscicidal and/or molloscrepellant agent” (priority 2002, published 2005).
# Tested on: Deroceras reticulatum
# Assay: Laboratory terraria barrier test on blotting paper (winter wheat seed hollowing, slug mortality)
# Format: in vivo
# Details: for slug mortality: barrier on blotting paper
# Procedure: Plastic trays (0.07 m^2) were lined with unbleached blotting paper and saturated with de-ionised water. Three groups of eight winter wheat seeds were placed into each tray and each group surrounded with approximately 1-2 g of test material, forming a barrier with approximately 1 cm diameter. Four slugs (Deroceras reticulatum) pre-starved for 24-48 hours were introduced to the trays. The tests were performed under controlled conditions (12 hours light 15° C.: 12 hours dark 15° C., 90% humidity). Five replicates were prepared per condition.
# The trays were observed daily, for seven days, for seed hollowing and mortality. After the seven days, the slugs were replaced with naive slugs and the test run for a further seven days. Mortality was indicated by failure to respond to 12-volt D.C. stimuli.
# Note: i) In all the experiments, a negative control was prepared consisting of slugs only, sawdust only, or “alcoholic” sawdust. ii) Metaldehyde (4%) was used as a positive control, to compare the toxicity properties of the 100% plant raw materials, rather than as a physical barrier.
# The method is identical to that used in Example 1 above.
smiles,measurement,setting,value
"CC1OC(C)OC(C)OC(C)O1 (stereo not drawn) [metaldehyde (4%), metaldehyde]",seed hollowing,"barrier around winter wheat seeds on blotting paper, first seven days (days 1 to 7)",1%
same,slug mortality,days 8 to 14,100%
same,slug mortality,first seven days,90%
